Test results as given in patent US20080044493A1, “Agent For Ameliorating The Maximum Passage Time Through Digestive Tract, Agent For Ameliorating Passage Time Through Digestive Tract And Preventive For Colon Cancer” (priority 2004, published 2008).

Tests used:
feces = conditions: 3 g a day; statistically significant; cited from earlier work
[1] = system: healthy subject (1 person) not suffering from constipation; assay: Test Example 1: transit time through the digestive tract by radio-opaque markers, with fecal weight and defecation frequency; format: in vivo, human; conditions: for Maximum Transit Time through Digestive Tract (average) / Transit Time through Digestive Tract (average): Standard Deviation in parentheses
Source text: The method proposed by Hinton et al. was invented to measure the time required from food ingestion to defecation, namely, transit time through the digestive tract. More specifically, a plurality of radio-opaque markers were taken with a meal, and the time required from food ingestion to defecation (ti) and the number of markers contained in the evacuated feces (xi) were inspected based on x-ray images of the collected feces, followed by calculation of transit time through the digestive tract using the following formula. Transit time through the digestive tract indicates an average time required for a plurality of radio-opaque markers taken simultaneously to be evacuated. [formula]
A test sample in a dose shown in Table 1, together with 15 markers, were administered per day with meals to a healthy subject (1 person) not suffering from constipation, and the markers in the feces of the subject were identified thereafter. Test samples were administered for 3 days, and during which the transit times through the digestive tract of 5 or 6 meals were measured. Transit time through the digestive tract calculated by the above formula after each meal and the time required for the last marker to be evacuated (maximum transit time through the digestive tract) were recorded. […] Statistical treatment was performed using t-tests. In addition to the marker identification, the fecal weight and defecation frequency were recorded, and daily average fecal weight and defecation frequency were calculated, and shown in Table 1.

5 subjects = conditions: liquid preparation 2.4 g per 100 ml, 70 ml (974 mg in terms of magnesium) a day; cited from earlier work

## OC[C@H]1O[C@@H](O[C@@H]2[C@@H](CO)OC(O)(CO)[C@H]2O)[C@H](O)[C@@H](O)[C@H]1O (mixture of isomers) [Lactulose]
feces
  Azoreductase activity in feces: lowered azoreductase activity
  Nitroreductase activity in feces: lowered nitroreductase activity
  Number of the Bifidobacterium in feces: increased number of the Bifidobacterium
  Putrefactive metabolites in feces: reduced putrefactive metabolites
  β-glucuronidase activity in feces: lowered β-glucuronidase activity
[1]; Dose/Day 1 g
  Average Defecation Frequency: 1.8 times/day
  Average Fecal Weight: 315 g/day
  Maximum Transit Time through Digestive Tract (average): 34.4 (9.4) hour
  Transit Time through Digestive Tract (average): 21.8 (3.1) hour

## OC[C@H]1O[C@@H](O[C@H]2[C@H](O)[C@@H](O)[C@@H](O[C@]3(CO)O[C@H](CO)[C@@H](O)[C@@H]3O)O[C@@H]2CO)[C@H](O)[C@@H](O)[C@H]1O [Lactosucrose]
[1]; Dose/Day 1.5 g
  Average Defecation Frequency: 2.0 times/day
  Average Fecal Weight: 267 g/day
  Maximum Transit Time through Digestive Tract (average): 31.3 (8.6) hour
  Transit Time through Digestive Tract (average): 19.7 (3.5) hour

## [O]=[Mg] [Magnesium Oxide]
[1]; 0.17 to 1.5 g a day, in comparison with no administration (control)
  Transit time and maximum transit time through the digestive tract (in words): shortened transit time and maximum transit time through the digestive tract were observed
[1]; 1.0 to 1.5 g intake a day
  Average fecal weight (in words): more than doubled
  Loose stools: caused loose stools having high a moisture content
[1]; Dose/Day 0.17 g
  Average Defecation Frequency: 2.3 times/day
  Average Fecal Weight: 274 g/day
  Maximum Transit Time through Digestive Tract (average): 38.1 (10.1) hour
  Transit Time through Digestive Tract (average): 20.6 (4.1) hour
[1]; Dose/Day 0.35 g
  Average Defecation Frequency: 2.0 times/day
  Average Fecal Weight: 204 g/day
  Maximum Transit Time through Digestive Tract (average): 32.4 (7.6) hour
  Transit Time through Digestive Tract (average): 17.5 (3.1) hour
[1]; Dose/Day 0.50 g
  Average Defecation Frequency: 2.3 times/day
  Average Fecal Weight: 313 g/day
  Maximum Transit Time through Digestive Tract (average): 35.6 (6.9) hour
  Transit Time through Digestive Tract (average): 21.6 (6.8) hour
[1]; Dose/Day 0.75 g
  Average Defecation Frequency: 2.3 times/day
  Average Fecal Weight: 235 g/day
  Maximum Transit Time through Digestive Tract (average): 34.9 (7.2) hour
  Transit Time through Digestive Tract (average): 21.0 (4.3) hour
[1]; Dose/Day 1.0 g
  Average Defecation Frequency: 2.0 times/day
  Average Fecal Weight: 414 g/day
  Maximum Transit Time through Digestive Tract (average): 37.1 (8.2) hour
  Transit Time through Digestive Tract (average): 22.9 (2.8) hour
[1]; Dose/Day 1.5 g
  Average Defecation Frequency: 2.3 times/day
  Average Fecal Weight: 426 g/day
  Maximum Transit Time through Digestive Tract (average): 35.6 (6.4) hour
  Transit Time through Digestive Tract (average): 19.5 (1.9) hour
[1]; up to 0.75 g intake a day
  Loose stools: loose stools were not caused

## O=S(=O)([O-])[O-].[Mg+2] [Magnesium Sulfate]
[1]; Dose/Day 4.5 g
  Average Defecation Frequency: 2.3 times/day
  Average Fecal Weight: 389 g/day
  Maximum Transit Time through Digestive Tract (average): 35.8 (10.1) hour
  Transit Time through Digestive Tract (average): 20.2 (2.4) hour
[1]; compared with magnesium oxide
  Cathartic effects: stronger cathartic effects than magnesium oxide

## OC[C@H]1O[C@H](OC[C@H]2O[C@H](O[C@]3(CO)O[C@H](CO)[C@@H](O)[C@@H]3O)[C@H](O)[C@@H](O)[C@@H]2O)[C@H](O)[C@@H](O)[C@H]1O [Raffinose]
[1]; Dose/Day 2 g
  Average Defecation Frequency: 2.3 times/day
  Average Fecal Weight: 243 g/day
  Maximum Transit Time through Digestive Tract (average): 31.0 (11.5) hour
  Transit Time through Digestive Tract (average): 22.2 (2.5) hour

## [O]=[Mg] [activated magnesium oxide]
5 subjects
  Cathartic drug effect: its cathartic drug effect was shown
